tested on: PHH 2D sandwich cultures; test: not given; conditions: PHH 2D sandwich cultures, 100x Cmax; ref Xu 2008; cited from earlier work

Structure (SMILES)	2Dsw (Xu 2008) 100x
CCN(CC)CC(=O)Nc1c(C)cccc1C [Lidocaine]	Negative
O=C1CN(/N=C/c2ccc(-c3ccc([N+](=O)[O-])cc3)o2)C(O)=N1 [Dantrolene]	Positive
Cc1cccc(Nc2ccccc2C(=O)O)c1C [Mefenamic Acid]	Positive
O=C(O)Cc1ccccc1Nc1c(Cl)cccc1Cl [Diclofenac]	Positive

same assay, conditions: cited from earlier work

Structure (SMILES)	2Dsw (Xu 2008) 100x
CNCCC(Oc1ccc(C(F)(F)F)cc1)c1ccccc1 (centres unmarked) [Fluoxetine]	Negative
Nc1c2c(nc3ccccc13)CCCC2 [Tacrine]	Negative
C=C[C@H]1C[N@@]2CC[C@H]1C[C@H]2[C@H](O)c1ccnc2ccc(OC)cc12 [Quinine]	Positive

tested on: primary human hepatocytes (PHH) 3D spheroids; test: not given; conditions: not given

Structure (SMILES)	Chemically defined spheroids (this study) 20x	hepatotoxicity evaluation in CD-spheroids
CNCCC(Oc1ccc(C(F)(F)F)cc1)c1ccccc1 (centres unmarked) [Fluoxetine]	Negative	
O=C1CN(/N=C/c2ccc(-c3ccc([N+](=O)[O-])cc3)o2)C(O)=N1 [Dantrolene]	Positive	revealed the DILI liability
Cc1cccc(Nc2ccccc2C(=O)O)c1C [Mefenamic Acid]	Positive	
COC1=CC(=O)C[C@@H](C)[C@]12Oc1c(Cl)c(OC)cc(OC)c1C2=O [Griseofulvin]	Negative	

Second part, led by results:

Chemically defined spheroids (this study) 20x	Structure (SMILES)	hepatotoxicity evaluation in CD-spheroids
Negative	Nc1c2c(nc3ccccc13)CCCC2 [Tacrine]	
Positive	C=C[C@H]1C[N@@]2CC[C@H]1C[C@H]2[C@H](O)c1ccnc2ccc(OC)cc12 [Quinine]	
Positive	O=C(O)Cc1ccccc1Nc1c(Cl)cccc1Cl [Diclofenac]	

tested on: clinical DILI in man; test: not given; conditions: in vivo; cited from earlier work

Structure (SMILES)	Classified as	Clinical DILI class (panel heading of Figure 4)	DILI in vivo	FDA (0-8)	Sakatis et al. (2012)	Suzuki et al. (2010)	Type of DILI	Xu et al. (2008)	FDA (Severity)	Guo et al. (2005)
CNCCC(Oc1ccc(C(F)(F)F)cc1)c1ccccc1 (centres unmarked) [Fluoxetine]	NEG	DILI negative	NEG	3	non-hepatotixic	2	Non-hepatotoxic	Negative		
Nc1c2c(nc3ccccc13)CCCC2 [Tacrine]	POS	High DILI concern	POS				Hepatocellular injury			
O=C1CN(/N=C/c2ccc(-c3ccc([N+](=O)[O-])cc3)o2)C(O)=N1 [Dantrolene]	POS	Severe DILI	POS	8	Hepatotoxic		Hepatocellular injury or Mixed hepatitis	Positive	most DILI concern	3
Cc1cccc(Nc2ccccc2C(=O)O)c1C [Mefenamic Acid]	POS	Severe DILI	POS	8	Hepatotoxic		Hepatocellular injury	Positive		

same assay, conditions: in vivo; cited from earlier work

Structure (SMILES)	O'Brien et al. (2003)
O=C1CN(/N=C/c2ccc(-c3ccc([N+](=O)[O-])cc3)o2)C(O)=N1 [Dantrolene]	Severely

tested on: PHH spheroids (hanging-drop); test: not given; conditions: 100× cmax, 2 weeks; ref Proctor et al., 2017; cited from earlier work

Structure (SMILES)	hepatotoxicity classification in hanging-drop PHH spheroids
CNCCC(Oc1ccc(C(F)(F)F)cc1)c1ccccc1 (centres unmarked) [Fluoxetine]	flagged as hepatotoxic
O=C1CN(/N=C/c2ccc(-c3ccc([N+](=O)[O-])cc3)o2)C(O)=N1 [Dantrolene]	previously missed

same assay, conditions: PHH hanging-drop spheroids, 100x Cmax; ref Proctor 2017; cited from earlier work

Structure (SMILES)	Hanging-drop spheroids (Proctor 2017) 100x
O=C1CN(/N=C/c2ccc(-c3ccc([N+](=O)[O-])cc3)o2)C(O)=N1 [Dantrolene]	Negative
O=C(O)Cc1ccccc1Nc1c(Cl)cccc1Cl [Diclofenac]	Positive

same assay, conditions: cited from earlier work

Structure (SMILES)	Hanging-drop spheroids (Proctor 2017) 100x
CNCCC(Oc1ccc(C(F)(F)F)cc1)c1ccccc1 (centres unmarked) [Fluoxetine]	Positive
Nc1c2c(nc3ccccc13)CCCC2 [Tacrine]	Negative

tested on: not given; test: not given; conditions: human, in vivo; cited from earlier work

Structure (SMILES)	Cmax [µM]
Nc1c2c(nc3ccccc13)CCCC2 [Tacrine]	0.07

same assay, conditions: therapeutic total cmax; ref PMID; cited from earlier work

Structure (SMILES)	Cmax [µM]
O=C1CN(/N=C/c2ccc(-c3ccc([N+](=O)[O-])cc3)o2)C(O)=N1 [Dantrolene]	3.69
Cc1cccc(Nc2ccccc2C(=O)O)c1C [Mefenamic Acid]	26.9
C=C[C@H]1C[N@@]2CC[C@H]1C[C@H]2[C@H](O)c1ccnc2ccc(OC)cc12 [Quinine]	9.25
COC1=CC(=O)C[C@@H](C)[C@]12Oc1c(Cl)c(OC)cc(OC)c1C2=O [Griseofulvin]	4.54

tested on: not listed separately; test: in vitro; conditions: human

Structure (SMILES)	viability at 14 days, 20 × cmax [%]
Nc1c2c(nc3ccccc13)CCCC2 [Tacrine]	> 100
COC1=CC(=O)C[C@@H](C)[C@]12Oc1c(Cl)c(OC)cc(OC)c1C2=O [Griseofulvin]	> 100

tested on: PHH micropatterned cocultures with murine embryonic fibroblasts; test: not given; conditions: cited from earlier work

Structure (SMILES)	MPCC (Khetani 2013) 100x
CNCCC(Oc1ccc(C(F)(F)F)cc1)c1ccccc1 (centres unmarked) [Fluoxetine]	Negative
C=C[C@H]1C[N@@]2CC[C@H]1C[C@H]2[C@H](O)c1ccnc2ccc(OC)cc12 [Quinine]	Positive

same assay, conditions: micropatterned cocultures, 100x Cmax; ref Khetani 2013; cited from earlier work

Structure (SMILES)	MPCC (Khetani 2013) 100x
CCN(CC)CC(=O)Nc1c(C)cccc1C [Lidocaine]	Positive
Cc1cccc(Nc2ccccc2C(=O)O)c1C [Mefenamic Acid]	Positive
O=C(O)Cc1ccccc1Nc1c(Cl)cccc1Cl [Diclofenac]	Positive

tested on: not given; test: not given; conditions: ref DrugBank and Prescribers' Digital Reference database; cited from earlier work

Structure (SMILES)	Extent of hepatic metabolism
O=C1CN(/N=C/c2ccc(-c3ccc([N+](=O)[O-])cc3)o2)C(O)=N1 [Dantrolene]	Extensive
Cc1cccc(Nc2ccccc2C(=O)O)c1C [Mefenamic Acid]	Extensive
COC1=CC(=O)C[C@@H](C)[C@]12Oc1c(Cl)c(OC)cc(OC)c1C2=O [Griseofulvin]	Extensive
